pIC50: −log10 of the molar value.
Experiments:
TBK1 = molecular target: T1, TBK1 (Homo sapiens, UniProt Q9UHD2); assay: TBK biochemical assay; conditions: 10 point 1:4 dose response, 30 uM top concentration, 90 min at 25° C., LabChip EZ Reader II; read-out: TBK1_IC50
T1 sequence (Q9UHD2 1-729): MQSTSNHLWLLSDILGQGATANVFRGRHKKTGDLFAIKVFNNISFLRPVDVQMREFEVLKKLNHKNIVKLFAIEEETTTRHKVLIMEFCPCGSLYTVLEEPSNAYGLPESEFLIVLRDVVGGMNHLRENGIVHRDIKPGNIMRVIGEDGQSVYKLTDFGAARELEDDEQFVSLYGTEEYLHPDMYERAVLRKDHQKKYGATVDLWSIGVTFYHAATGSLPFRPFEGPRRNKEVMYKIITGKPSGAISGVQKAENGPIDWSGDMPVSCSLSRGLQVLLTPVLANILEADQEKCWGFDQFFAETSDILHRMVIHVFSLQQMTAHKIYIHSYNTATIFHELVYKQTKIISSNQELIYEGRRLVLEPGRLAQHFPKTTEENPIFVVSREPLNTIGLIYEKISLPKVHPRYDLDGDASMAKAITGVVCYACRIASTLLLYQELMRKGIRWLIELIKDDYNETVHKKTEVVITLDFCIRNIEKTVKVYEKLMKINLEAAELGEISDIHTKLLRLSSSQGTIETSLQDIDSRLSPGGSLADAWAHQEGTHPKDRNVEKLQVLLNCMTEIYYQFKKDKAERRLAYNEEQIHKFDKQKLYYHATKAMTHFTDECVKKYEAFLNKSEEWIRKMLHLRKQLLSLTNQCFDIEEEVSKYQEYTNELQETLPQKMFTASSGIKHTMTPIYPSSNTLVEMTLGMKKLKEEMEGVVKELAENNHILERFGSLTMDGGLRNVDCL
Procedure, shortened: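 Read-out was a Caliper LabChip mobility-shift assay, run after a 90-min, 25 °C reaction of TBK1 with substrate and compounds, quenched with stop buffer. Control wells received staurosporine at 10 uM final.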

IKKε = molecular target: T2, IKKε (Homo sapiens, UniProt Q14164); assay: IKKε biochemical assay; conditions: 10 point 1:4 dose response, 30 uM top concentration, 90 min at 25° C., LabChip EZ Reader II; read-out: IKKε_IC50
T2 sequence (Q14164 1-716): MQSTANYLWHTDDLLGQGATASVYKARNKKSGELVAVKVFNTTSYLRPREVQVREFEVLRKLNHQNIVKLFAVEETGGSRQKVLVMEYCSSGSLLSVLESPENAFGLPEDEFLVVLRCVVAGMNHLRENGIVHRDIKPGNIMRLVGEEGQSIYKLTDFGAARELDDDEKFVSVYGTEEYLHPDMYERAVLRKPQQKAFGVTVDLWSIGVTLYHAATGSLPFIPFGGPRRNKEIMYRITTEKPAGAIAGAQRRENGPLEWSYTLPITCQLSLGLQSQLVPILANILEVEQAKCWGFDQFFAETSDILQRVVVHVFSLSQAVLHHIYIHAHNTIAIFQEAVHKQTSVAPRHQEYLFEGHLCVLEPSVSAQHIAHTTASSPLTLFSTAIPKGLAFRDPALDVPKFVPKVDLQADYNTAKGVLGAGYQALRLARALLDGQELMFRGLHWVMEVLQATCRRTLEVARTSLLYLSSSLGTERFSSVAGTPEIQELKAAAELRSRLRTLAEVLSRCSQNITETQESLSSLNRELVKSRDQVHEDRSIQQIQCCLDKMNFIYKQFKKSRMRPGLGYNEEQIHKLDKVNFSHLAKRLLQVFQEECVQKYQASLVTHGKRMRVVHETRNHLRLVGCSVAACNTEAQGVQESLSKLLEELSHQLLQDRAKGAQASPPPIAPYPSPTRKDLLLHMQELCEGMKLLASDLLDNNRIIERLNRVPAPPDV
Procedure, shortened: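 Mobility-shift LabChip read-out followed a 90 min, 25° C. reaction of IKKε with substrate and test compound, with DMSO held at 1% final. Reactions were ended with stop buffer. Wells with 10 uM final staurosporine defined complete inhibition, and DMSO-only wells the uninhibited level.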

Row | Compound | pIC50 (TBK1) | pIC50 (IKKε)
1 | COc1nc(Nc2nccc(-c3ccc(OC4CCNCC4C)c(C#N)c3)n2)ccc1N1CCN(C2COC2)CC1 (stereo not drawn) [Example 270, 5-{2-[6-Methoxy-5-(4-oxetan-3-yl-piperazin-1-yl)-pyridin-2-ylamino]-pyrimidin-4-yl}-2-(3-methyl-piperidin-4-yloxy)-benzonitrile] | > 7.00 | > 7.00
2 | COc1nc(Nc2nccc(-c3ccc(OC4CCN(C(=O)[C@H](C)O)CC4C)c(C#N)c3)n2)ccc1N1CCN(C2COC2)CC1 (stereo partly drawn) [Example 271, 2-[1-((S)-2-Hydroxy-propionyl)-3-methyl-piperidin-4-yloxy]-5-{2-[6-methoxy-5-(4-oxetan-3-yl-piperazin-1-yl)-pyridin-2-ylamino]-pyrimidin-4-yl}-benzonitrile] | > 7.00 | > 7.00
3 | COc1nc(Nc2nccc(-c3ccc(OC4CCN(C(=O)[C@@H](O)CO)CC4C)c(C#N)c3)n2)ccc1N1CCN(C2COC2)CC1 (stereo partly drawn) [Example 272, 2-[1-((S)-2,3-Dihydroxy-propionyl)-3-methyl-piperidin-4-yloxy]-5-{2-[6-methoxy-5-(4-oxetan-3-yl-piperazin-1-yl)-pyridin-2-ylamino]-pyrimidin-4-yl}-benzonitrile] | > 7.00 | > 7.00
4 | Cc1nc(C(=O)N2CCC(Oc3ccc(-c4ccnc(Nc5ccc(N6CCN(C7COC7)CC6)cc5)n4)cc3C#N)CC2)n[nH]1 [Example 273, 2-[[1-(5-methyl-1H-1,2,4-triazole-3-carbonyl)piperidin-4-yl]oxy]-5-[2-([4-[4-(oxetan-3-yl)piperazin-1-yl]phenyl]amino)pyrimidin-4-yl]benzonitrile] | > 7.00 | > 7.00
5 | Cc1nc(C(=O)N2CCC(Oc3ccc(-c4ccnc(Nc5ccc(N6CCN(C7COC7)CC6)cc5)n4)cc3C#N)CC2)c[nH]1 [Example 274, 2-[[1-(2-methyl-1H-imidazole-4-carbonyl)piperidin-4-yl]oxy]-5-[2-([4-[4-(oxetan-3-yl)piperazin-1-yl]phenyl]amino)pyrimidin-4-yl]benzonitrile] | > 7.00 | > 7.00
6 | COc1nc(Nc2nccc(-c3ccc(OC4CCN(C(=O)[C@H](C)O)CC4(F)F)c(C#N)c3)n2)ccc1N1CCOCC1 (stereo partly drawn) [Example 275, 2-([3,3-difluoro-1-[(2S)-2-hydroxypropanoyl]piperidin-4-yl]oxy)-5-(2-[[6-methoxy-5-(morpholin-4-yl)pyridin-2-yl]amino]pyrimidin-4-yl)benzonitrile] | > 7.00 | > 7.00
7 | N#Cc1cc(-c2ccnc(Nc3cccc(C4CCN(C5COC5)CC4)c3)n2)ccc1OC1CCN(C(=O)[C@@H](O)CO)CC1(F)F (stereo partly drawn) [Example 276, 2-[1-((S)-2,3-Dihydroxy-propionyl)-3,3-difluoro-piperidin-4-yloxy]-5-{2-[3-(l-oxetan-3-yl-piperidin-4-yl)-phenylamino]-pyrimidin-4-yl}-benzonitrile] | > 7.00 | > 7.00
8 | C[C@H](O)C(=O)N1CC(COc2ccc(-c3ccnc(Nc4ccc(N5CCN(C6COC6)CC5)cc4)n3)cc2C#N)C1 [Example 277, 2-([1-[(2S)-2-hydroxypropanoyl]azetidin-3-yl]methoxy)-5-[2-([4-[4-(oxetan-3-yl)piperazin-1-yl]phenyl]amino)pyrimidin-4-yl]benzonitrile] | > 7.00 | > 7.00
9 | C[C@@H](O)C(=O)N1CC(COc2ccc(-c3ccnc(Nc4ccc(N5CCN(C6COC6)CC5)cc4)n3)cc2C#N)C1 [Example 278, 2-([1-[(2R)-2-hydroxypropanoyl]azetidin-3-yl]methoxy)-5-[2-([4-[4-(oxetan-3-yl)piperazin-1-yl]phenyl]amino)pyrimidin-4-yl]benzonitrile] | 6.00 to 7.00 | 6.00 to 7.00
10 | COc1nc(Nc2nccc(-c3ccc(OCC4CN(C(=O)[C@H](C)O)C4)c(C#N)c3)n2)ccc1N1CCN(C2COC2)CC1 [Example 279, 2-([1-[(2S)-2-hydroxypropanoyl]azetidin-3-yl]methoxy)-5-[2-([6-methoxy-5-[4-(oxetan-3-yl)piperazin-1-yl]pyridin-2-yl]amino)pyrimidin-4-yl]benzonitrile] | > 7.00 | 6.00 to 7.00
11 | COc1nc(Nc2nccc(-c3ccc(OCC4CN(C(=O)[C@@H](C)O)C4)c(C#N)c3)n2)ccc1N1CCN(C2COC2)CC1 [Example 280, 2-([1-[(2R)-2-hydroxypropanoyl]azetidin-3-yl]methoxy)-5-[2-([6-methoxy-5-[4-(oxetan-3-yl)piperazin-1-yl]pyridin-2-yl]amino)pyrimidin-4-yl]benzonitrile] | 6.00 to 7.00 | 6.00 to 7.00
12 | COc1nc(Nc2ncc(C)c(-c3ccc(OC4CCN(C(=O)[C@H](C)O)CC4(F)F)c(C#N)c3)n2)ccc1N1CCN(C2COC2)CC1 (stereo partly drawn) [Example 283, 2-([33-difluoro-1-[(2S)-2-hydroxypropanoyl]piperidin-4-yl]oxy)-5-[2-([6-methoxy-5-[4-(oxetan-3-yl)piperazin-1-yl]pyridin-2-yl]amino)-5-methylpyrimidin-4-yl]benzonitrile] | > 7.00 | > 7.00

Further lines, results first:

Row | pIC50 (TBK1) | pIC50 (IKKε) | Compound
13 | > 7.00 | > 7.00 | COc1nc(Nc2nccc(-c3ccc(OC4(C)CCN(C(=O)[C@@H](O)CO)CC4(F)F)c(C#N)c3)n2)ccc1N1CCN(C2COC2)CC1 (stereo partly drawn) [Example 264, 2-[1-((S)-2,3-Dihydroxy-propionyl)-3,3-difluoro-4-methyl-piperidin-4-yloxy]-5-{2-[6-methoxy-5-(4-oxetan-3-yl-piperazin-1-yl)-pyridin-2-ylamino]-pyrimidin-4-yl}-benzonitrile]
14 | > 7.00 | > 7.00 | COc1nc(Nc2nccc(-c3ccc(OC4(C)CCN(C(=O)[C@H](C)O)CC4(F)F)c(C#N)c3)n2)ccc1N1CCN(C2COC2)CC1 (stereo partly drawn) [Example 265, 2-[3,3-Difluoro-1-((S)-2-hydroxy-propionyl)-4-methyl-piperidin-4-yloxy]-5-{2-[6-methoxy-5-(4-oxetan-3-yl-piperazin-1-yl)-pyridin-2-ylamino]-pyrimidin-4-yl}-benzonitrile]
15 | > 7.00 | > 7.00 | COc1nc(Nc2nccc(-c3ccc(OC4CCN(C(=O)[C@H](C)O)C(C)C4)c(C#N)c3)n2)ccc1N1CCN(C2COC2)CC1 (stereo partly drawn) [Example 266, 2-[1-((S)-2-Hydroxy-propionyl)-2-methyl-piperidin-4-yloxy]-5-{2-[6-methoxy-5-(4-oxetan-3-yl-piperazin-1-yl)-pyridin-2-ylamino]-pyrimidin-4-yl}-benzonitrile]
16 | > 7.00 | > 7.00 | COc1nc(Nc2nccc(-c3ccc(OC4(C)CCNCC4)c(C#N)c3)n2)ccc1N1CCN(C2COC2)CC1 [Example 267, 5-{2-[6-Methoxy-5-(4-oxetan-3-yl-piperazin-1-yl)-pyridin-2-ylamino]-pyrimidin-4-yl}-2-(4-methyl-piperidin-4-yloxy)-benzonitrile]
17 | > 7.00 | 6.00 to 7.00 | COc1nc(Nc2nccc(-c3ccc(OC4(C)CCN(C(=O)[C@H](C)O)CC4)c(C#N)c3)n2)ccc1N1CCN(C2COC2)CC1 [Example 268, 2-[1-((S)-2-Hydroxy-propionyl)-4-methyl-piperidin-4-yloxy]-5-{2-[6-methoxy-5-(4-oxetan-3-yl-piperazin-1-yl)-pyridin-2-ylamino]-pyrimidin-4-yl}-benzonitrile]
18 | > 7.00 | > 7.00 | COc1nc(Nc2nccc(-c3ccc(OC4(C)CCN(C(=O)[C@@H](O)CO)CC4)c(C#N)c3)n2)ccc1N1CCN(C2COC2)CC1 [Example 269, 2-[1-((S)-2,3-Dihydroxy-propionyl)-4-methyl-piperidin-4-yloxy]-5-{2-[6-methoxy-5-(4-oxetan-3-yl-piperazin-1-yl)-pyridin-2-ylamino]-pyrimidin-4-yl}-benzonitrile]
